{
  "source": "patent US20130079309A1",
  "about": "“Method Of Treating Acute Lung Injury Using Sphingosine 1 Phosphate Analogs Or Sphingosine 1 Phosphate Receptor Agonists” (The Board of Trustees of the University of Illinois, priority 2010, published 2013)",
  "key": {"HPAEC [1]": {"system": "HPAEC", "experiment": "Transwell transendothelial permeability assay (FITC-dextran)", "format": "cell-based, human", "conditions": "1 μM (3R, 3S 25 μM), 1 h before FITC-dextran, 2-h incubation", "quoted_text": "As a complementary approach to further characterize the barrier-protective effects of these FTY720 analogs in vitro, the permeability of FITC-labeled dextran across the pulmonary EC monolayer was assayed in response to treatment by the FTY720 analogs. […] Data were normalized to unstimulated control. n=3 independent experiments per condition; *, p<0.01 versus unstimulated condition (see FIG. 26)."}, "HPAEC [2]": {"system": "HPAEC", "experiment": "Transendothelial electrical resistance (TER) of HPAEC", "format": "cell-based, human", "conditions": "10 μM, within 60 min", "experimental": "Cells were grown at 37° C. in a 5% CO2 incubator, and passages 6 to 9 were used for experiments. Media were changed 1 day before experimentation."}, "ERK": {"system": "ERK", "experiment": "Western blotting of HPAEC lysates for phospho-ERK", "format": "cell-based, human", "conditions": "5 min", "experimental": "(§1) After treatment as outlined for individual experiments, confluent HPAEC were lysed for Western blotting with phospho-MLC, pan-MLC, phospho-ERK, or pan-ERK antibodies. […] Membranes were then immunoblotted with primary antibodies (1:500-1000, 4° C., overnight) followed by secondary antibodies conjugated to horseradish peroxidase (1:5000, room temperature, 30 min) and detected with enhanced chemiluminescence (Pierce ECL or SuperSignal West Dura; Pierce Biotechnology, Rockford, Ill.) on Biomax MR film (Carestream Health, Rochester, N.Y.)."}, "MLC": {"system": "MLC", "experiment": "Western blotting of HPAEC lysates for phospho-MLC", "format": "cell-based, human", "conditions": "5 min", "experimental": "as §1"}, "S1P receptor 1 (S1PR1) [3]": {"biological_target": "T1, S1P receptor 1 (S1PR1) (Homo sapiens, UniProt P21453)", "T1 sequence (P21453 whole entry)": "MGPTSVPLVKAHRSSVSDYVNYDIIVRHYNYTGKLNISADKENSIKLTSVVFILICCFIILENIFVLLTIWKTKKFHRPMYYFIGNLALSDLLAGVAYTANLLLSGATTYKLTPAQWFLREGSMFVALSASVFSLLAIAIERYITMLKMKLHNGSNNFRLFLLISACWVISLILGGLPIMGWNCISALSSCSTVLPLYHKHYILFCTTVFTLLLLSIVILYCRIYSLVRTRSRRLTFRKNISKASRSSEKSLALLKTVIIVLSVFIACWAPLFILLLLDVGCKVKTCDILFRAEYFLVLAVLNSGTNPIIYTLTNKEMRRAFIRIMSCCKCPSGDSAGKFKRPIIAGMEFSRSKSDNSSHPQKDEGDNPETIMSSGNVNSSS", "experiment": "Ubiquitination of S1PR1 in HPAEC (immunoprecipitation, ubiquitin Ab)", "conditions": "1 μM, 1 h", "text": "S1PR1 was immunoprecipitated by S1PR1Ab, and ubiquitination of S1PR1 was detected by ubiquitin Ab."}, "β-arrestin": {"system": "β-arrestin", "conditions": "1 μM (SEW2871 10 μM; (S)-FTY720-phosphonate 1, 10, 50 μM), 5 h", "quoted_text": "After another 2 h-incubation with fluorescence substrate, the fluorescence intensity (blue and green channels) were detected and the blue/green emission ratio was used as the activation indicator."}, "HPAEC [4]": {"system": "HPAEC", "experiment": "Intracellular calcium by Fura-2", "format": "cell-based, human", "conditions": "1 μM", "experimental": "To further explore the mechanistic differences in barrier regulation, intracellular calcium responses to the FTY720 analogs, S1P, and FTY720 were examined using Fura-2 (Harbeck et al., 2006, Sci STKE 2006: p16). HPAEC plated on 25-mm glass coverslips were loaded with 1 μM Fura-2/acetoxymethyl ester (Invitrogen, Carlsbad, Calif.) for 20 min at 37° C. in KRBH5 buffer (Krebs-Ringer-bicarbonate solution containing 119 mM NaCl, 4.7 mM KCl, 2.5 mM CaCl2, 1 mM MgCl2, 1 mM KH2PO4, 25 mM NaHCO3, mM HEPES-NaOH (pH 7.4), and 5 mM glucose). After replacement of the Fura-2 loading buffer with fresh KRBH5, coverslips were placed into the specimen stage of an inverted fluorescence microscope (Nikon TE-2000U). A Nikon Super Fluor 10× objective was used for these studies. Filters (340- and 380-nm excitation and 530-nm emission) were used for Fura-2 dual excitation ratio imaging. […] Fura-2 ratios were converted to [Ca^2+] using the equation: [Ca^2+]=(Kd′[(R−Rmin)/(Rmax−R)]×Sf/Sb) (Grynkiewicz et al., 1985, J Biol Chem 260: 3440-3450), where Kd′ is the dissociation constant for Fura-2 in the cytosol (225 nM) and Sf and Sb are the measured emission intensities at 380 nm for Ca^2+-free and Ca^2+-bound Fura-2, respectively. Data summaries for all Ca^2+ measurements are expressed as the means±S.E."}, "S1P receptor 1 (S1PR1) [5]": {"biological_target": "T1, S1P receptor 1 (S1PR1)", "experiment": "S1PR1 protein expression in HPAEC by Western blot", "format": "cell-based", "design": "Cells were collected and S1PR1 expression level was detected by Western blot; endogenous in cells; host or cells: HPAEC (human pulmonary artery endothelial cells)", "conditions": "1 μM (SEW2871 10 μM), 4 h", "description": "Cells were collected and S1PR1 expression level was detected by Western blot."}, "HPAEC [6]": {"system": "HPAEC", "conditions": "Camp et al., 2009; cited from earlier work"}, "HPAEC [7]": {"system": "HPAEC", "experiment": "Pharmacologic inhibitor effects on barrier enhancement (TER)", "conditions": "1 μM agonist, 60 min", "quoted_text": "Endothelial cells were grown to confluence in polycarbonate wells containing evaporated gold microelectrodes (surface area, 10^−3 cm^2) in series with a large gold counter electrode (1 cm^2) connected to a phase-sensitive lock-in amplifier. Current was applied across the electrodes by a 4,000-Hz AC voltage source with amplitude of 1 V in series with a 1 MΩ resistance to approximate a constant current source (˜1 μA). The in-phase and out-of-phase voltages between the electrodes were monitored in real time with the lock-in amplifier and subsequently converted to scalar measurements of transendothelial impedance, of which resistance was the primary focus. TER was monitored for 30 minutes to establish a baseline resistance (R0) which, for bovine pulmonary endothelium, was typically between 8 to 12×10^3Ω (wells with R0<7×10^3Ω were rejected). As cells adhere and spread out on the microelectrode, TER increases (maximal at confluence), whereas cell retraction, rounding, or loss of adhesion is reflected by a decrease in TER. These measurements provide a highly sensitive biophysical assay that indicates the state of cell shape and focal adhesion. Values from each microelectrode were pooled at discrete time points and plotted versus time as the mean±SE of the mean. TER values from each microelectrode were pooled as discrete time points and plotted versus time as the mean±S.E.M.\nIn this experiment, confluent HPAEC were plated on gold microelectrodes and then stimulated with 1 μM S1P, FTY720, 1R, 1S, 2R, or 2S after either a 2-h preincubation with 100 ng/ml PTX, 30-min preincubation with 200 μM genistein (Gen), or 2-h preincubation with 2 mM MβCD or their respective vehicle controls. Data were pooled from multiple TER experiments (4-10 independent experiments per condition) and expressed as percentage inhibition of maximal barrier enhancement at 60 min relative to agonist-only control."}, "[8]": {"system": "LPS-induced lung injury in C57BL/6 mice", "experiment": "LPS-induced murine lung injury model", "conditions": "1S 0.1-5.0 mg/kg i.p. single dose 1 h after LPS 2.5 mg/kg i.t.; 18 h; FTY720 0.5 mg/kg, S1P 0.026 mg/kg", "quoted_text": "For experiments performed in intact animals, male C57BL/6 mice (8-10 weeks) were anesthetized with intraperitoneal ketamine and acetylpromazine mixture according to the approved protocol. Escherichia coli LPS solution (2.5 mg/kg) or sterile saline was instilled intratracheally via a 20-gauge catheter. Simultaneously, mice received either FTY720 or analogs (in doses: 0.01, 0.1, 0.5, 1, and 5 mg/kg i.p.) or PBS as vehicle. The animals were allowed to recover for 18 h. BAL and lungs were collected and stored at −70° C. for evaluation of lung injury.\nPure BAL fluids prepared for protein measurement or myeloperoxidase activity (MPO) lung homogenates were used to test albumin concentration. The assay was performed in 96-well plastic plates (Nalge Nunc A/S, Roskilde, Denmark). Plates were coated with mouse albumin (Bethyl Lab, Montgomery, Tex.), washed, and blocked. Aliquots (100-μl) of the sample or standard and 100 μl of goat anti-mouse albumin antibody (horseradish peroxidase-conjugated) (1:50,000) were then added, followed by incubation at 37° C. for 1 h. Finally, the substrate 3,3′,5,5′-tetramethylbenzidine was added for 10 min, and the reaction stopped by adding 100 μl of 2 M H2SO4. The absorbance at 450 nm was read on a kinetic microplate reader (Molecular Devices).\nMyeloperoxidase (MPO) was isolated and measured from snap-frozen right lungs as follows (see also Remick et al., 1990, Am J Pathol 136: 49-60). The right lung was homogenized in 1 ml of 50 mM potassium phosphate, pH 6.0, with 0.5% hexadecyltrimethylammonium bromide. The resulting homogenate was sonicated and then centrifuged at 12,000 g for 15 min. The supernatant was mixed 1:30 with assay buffer (100 mM potassium phosphate, pH 6.0, 0.005% H2O2, 0.168 mg/ml o-dianisidine hydrochloride), and absorbance read at 490 nm. MPO units were calculated as the change in absorbance with respect to time.\nPeripheral blood was examined by the Missouri University Research Animal Diagnostic Laboratory (Columbia, Mo.) for determination of total blood cell counts and differentials in blood samples.\nValues are shown as the mean±S.E. Data were analyzed using a standard Student's t test or one-way analysis of variance, groups were compared by Newman-Keuls test, and significance in all cases was defined at p<0.05."}},
  "data": [
    {"molecule": "CCCCCCCCCCCCC/C=C/[C@@H](O)[C@@H](N)COP(=O)(O)O", "note": "[S1P, sphingosine 1 phosphate]", "values": [
      {"measurement": "EC permeability to FITC-dextran vs control EC", "setting": "HPAEC [1]", "result": "significantly decreased permeability"},
      {"measurement": "maximal TER change", "setting": "HPAEC [2]", "result": "somewhat barrier-disruptive"},
      {"measurement": "ERK phosphorylation", "setting": "ERK", "result": "increased MLC and ERK phosphorylation"},
      {"measurement": "MLC phosphorylation", "setting": "MLC", "result": "increased MLC and ERK phosphorylation"},
      {"measurement": "ubiquitination of S1PR1 at 1 h", "setting": "S1P receptor 1 (S1PR1) [3]", "result": "significant ubiquitination"},
      {"measurement": "activation of β-arrestin (blue/green emission ratio)", "setting": "β-arrestin", "result": "strongly activated"},
      {"measurement": "intracellular calcium [Ca2+]i", "setting": "HPAEC [4]", "result": "produced a transient Ca^2+ spike"},
      {"measurement": "S1PR1 expression level compared to control", "setting": "S1P receptor 1 (S1PR1) [5]", "result": 38.1, "unit": "%"},
      {"measurement": "doses that can disrupt EC monolayer integrity", "setting": "HPAEC [6]", "result": "> 10", "unit": "µM"},
      {"measurement": "% Inhibition of Maximal TER Response (of Agonist-Only Control), PTX", "setting": "HPAEC [7]; 2-h preincubation 100 ng/ml PTX", "result": "98.35 (±0.25) %"},
      {"measurement": "% Inhibition of Maximal TER Response (of Agonist-Only Control), MβCD", "setting": "HPAEC [7]; 2-h preincubation 2 mM MβCD", "result": "81.5 (±8.0) %"},
      {"measurement": "% Inhibition of Maximal TER Response (of Agonist-Only Control), Gen", "setting": "HPAEC [7]; 30-min preincubation 200 μM genistein", "result": "42.4 (±13.9) %"},
      {"measurement": "capillary leak as total BAL protein, relative to PBS control", "setting": "[8]", "result": "reduction in permeability by 1S was comparable to that achieved by S1P or FTY720"}
    ]}
  ]
}
